In patent US8557286B1, “Method for producing a water-insoluble amorphous or partially amorphous controlled release matrix” (EuroCeltique, S.A., priority 2000, dated 2013):

Experiment: Release of the active agent in a paddle agitator model according to USP
Assay type: physicochemical
Conditions: total dose of 25 mg; pure caffeine, not retarded, filled in a capsule; FIG. 3
Excerpt: In this context it is once again pointed out that the degree of destructurization into the glass state is decisive for the kinetics of the release of the active agents. […] For comparative purposes, the release of pure caffeine, not retarded and filled in a capsule has been drawn in.

Cn1c(=O)c2c(ncn2C)n(C)c1=O [caffeine]
Time of release for the total dose: about 15 minutes
